Results: patent publication US20030086987A1, “Salvianolic acid B” (priority 2001, published 2003)

Key:
[1] = system: New Zealand White rabbits; assay: Intima/media area ratio in cholesterol-fed rabbits after femoral artery denudation; format: in vivo; conditions: 2% cholesterol diet, six weeks, probucol 1.5 g/day, salvianolic acid B 375 mg/day; for ratio of the intima area to the media area, thoracic aorta section: CT group 0.1; for ratio of the intima area to the media area, aortic arch section: CT group 0.22; for ratio of the intima area to the media area, abdominal aorta section: CT group 0.58
Protocol: New Zealand White rabbits were randomly divided into three groups. […] Another group was fed with the control diet containing 1.5 g/day probucol (P group), and the third group was fed with the control diet containing 375 mg/day salvianolic acid B (Sal B group). After being fed for three weeks, all rabbits underwent a femoral artery denudation. After the operation, the diet fed to each group was maintained for anther three weeks. […] Thin sections (5 μm thick) were stained with Mayer's hematoxylin-eosin solution. […] See, e.g., Gordon et al. (1992) Proc […] USA 89: 11312-11316. In the CT group, the ratio of the intima area to the media area of the aortic arch section was 0.22 (±0.04).

[2] = system: Human aortic smooth muscle cells (HASMCs); assay: Rescue of oxLDL induced cell death, MTT assay; format: cell-based; conditions: then 40 μg/mL oxLDL for 24 hr, oxLDL alone 23.5%
Protocol: Human aortic smooth muscle cells (HASMCs, Cascade Biologics, Inc. Portland, Oreg.) were cultured in Medium 231 (Cascade Biologics, Inc.), supplemented with 5% smooth muscle growth serum (SMGS), 100 untis/mL penicillin, 100 μg/mL streptomycin, 1.25 μ/mL Fungizone (amphotericin B) at 37° C. in 5% CO2 saturated humidity atmosphere. The medium was changed every 4 days, and cells were detached by treatment with 0.05% trypsin, 0.02% EDTA solutions. […] Before each experiment, the medium was removed, and cells were washed and then cultured in serum-free medium containing the supplements indicated above but without SMGS. […] Then, 40 μg/mL oxLDL was added to the incubated medium for another 24 hr. The cytotoxic effect can be determined using the 3-(4,5-dimethylthiazol-2-yl)-2,5-diphenyltetrazolium bromide (MTT) assay method described in Boyd (In Principle of Practice of Oncology, […]., and Rosenberg, S. A. (Eds) Vol. 3, PPO Update, No. 10, 1989).

[3] = system: caspase-3; assay: Inhibition of oxLDL induced caspase-3 activation, Western blot in HASMCs; format: cell-based, Human; conditions: 1 or 10 μg/mL for 24 hr, then 20 μg/mL oxLDL for 24 hr
Protocol: Human aortic smooth muscle cells (HASMCs, Cascade Biologics, Inc. Portland, Oreg.) were cultured in Medium 231 (Cascade Biologics, Inc.), supplemented with 5% smooth muscle growth serum (SMGS), 100 untis/mL penicillin, 100 μg/mL streptomycin, 1.25 μ/mL Fungizone (amphotericin B) at 37° C. in 5% CO2 saturated humidity atmosphere. The medium was changed every 4 days, and cells were detached by treatment with 0.05% trypsin, 0.02% EDTA solutions. […] Before each experiment, the medium was removed, and cells were washed and then cultured in serum-free medium containing the supplements indicated above but without SMGS. […] The sample solution was heated at 100° C. for 5 min, cooled down to room temperature, and subjected to 12% SDS-polyacrylamide gel electrophoresis. Then, proteins were transferred to PVDF membranes, blocked with 5% nonfat milk in Tris-buffered saline-Tween 20 (0.1%) at room temperature for 2 hr, and incubated overnight at 4° C. with […] anti-caspase-3 antibody (dilution 1:1000). The membranes were washed three times in Tris-buffered saline-Tween 20, and antibody reactions were detected using horseradish peroxidase-conjugated goat anti-rabbit IgG (0.2 μg/mL) and LumiGLO chemiluminescent detection reagents (Bradford (1976) Analytical Biochem 72: 248-254). Activated caspase-3 (17 kD) was detected in HASMCs after oxLDL treatment.

[4] = system: IL-1β; assay: Inhibition of oxLDL induced IL-1β production in HASMCs, sandwich ELISA; format: cell-based, Human; conditions: 1, 2.5 and 10 μg/mL for 24 hr, then 20 μg/mL oxLDL for 24 hr
Protocol: (§1) Human aortic smooth muscle cells (HASMCs, Cascade Biologics, Inc. Portland, Oreg.) were cultured in Medium 231 (Cascade Biologics, Inc.), supplemented with 5% smooth muscle growth serum (SMGS), 100 untis/mL penicillin, 100 μg/mL streptomycin, 1.25 μ/mL Fungizone (amphotericin B) at 37° C. in 5% CO2 saturated humidity atmosphere. The medium was changed every 4 days, and cells were detached by treatment with 0.05% trypsin, 0.02% EDTA solutions. […] Before each experiment, the medium was removed, and cells were washed and then cultured in serum-free medium containing the supplements indicated above but without SMGS. […] IL-1 production was determined with a sandwich ELISA using anti-IL-1 antibodies (e.g., IL-1β and IL-1ra ELISA kits from R&D Systems and Endogen, Inc. respectively).

[5] = system: IL-1ra; assay: Inhibition of oxLDL induced IL-1ra production in HASMCs, sandwich ELISA; format: cell-based, Human; conditions: 1, 2.5 and 10 μg/mL for 24 hr, then 20 μg/mL oxLDL for 24 hr
Protocol: as §1

[6] = system: apoE (−) mice; assay: Atherosclerotic area in the apoE (−) mice; format: in vivo; conditions: 0.15% cholesterol diet with 0.25% salvianolic acid B or 2% SAGE, 113 days
Protocol: 25-week apoE (−) mice from Jackson Laboratory were randomly divided into three groups. Animals in the control group (CT group) were fed with a diet containing 0.15% cholesterol (w/w) (a control diet). Second group (SB group) was fed with the control diet containing 0.25% salvianolic acid B (w/w); and third group (SAGE group) was fed with the control diet containing 2% SAGE (w/w). The feeding period was 113 days. SAGE was prepared as follows:
Salvia miltiorrhiza extract was obtained from extracts of the sliced and ground roots of Salvia miltiorrhiza by using an aqueous ethanol solution (water: ethanol =4:1, v/v). The weight to volume ration of Salvia miltiorrhiza to extraction solvent was 1:10 (w/v).
Angelica sinensis extract was obtained from ethanolic extracts (1:10, w/v).
Glycyrrhizae radix (Glycyrrhiza uralensis) extract was obtained from ethanolic extracts (1:10, w/v).
The weight ratio of Salvia miltiorrhiza extract, Angelica sinensis extract, and Glycyrrhiza uralensis extract was 2:1:1, respectively, based on the dried weights of the raw herbs used.

Compound	ratio of the intima area to the media area, thoracic aorta section [1]	ratio of the intima area to the media area, aortic arch section [1]	ratio of the intima area to the media area, abdominal aorta section [1]	cell viability of the HASMCs ([2]; 1 μg/mL for 24 hr)	cell viability of the HASMCs ([2]; 1.25 μg/mL for 24 hr)	cell viability of the HASMCs ([2]; 10 μg/mL for 24 hr)	cell viability of the HASMCs ([2]; 20 μg/mL for 24 hr)	activated caspase-3 (17 kD) after oxLDL treatment [3]	oxLDL induced IL-1β production [4]	oxLDL induced IL-1ra production [5]	Inhibition (%) of atherosclerosis compared with control group [6] [%]	Intima area ([6]; mean ± S.D.)	Media area ([6]; mean ± S.D.)	Intima/Media (ratio) ([6]; mean ± S.D., CT 0.770)
CC(C)(Sc1cc(C(C)(C)C)c(O)c(C(C)(C)C)c1)Sc1cc(C(C)(C)C)c(O)c(C(C)(C)C)c1 [probucol, reference compound]	about 0.03	about 0.1	about 0.33											
O=C(/C=C/c1ccc(O)c2c1[C@H](C(=O)O[C@H](Cc1ccc(O)c(O)c1)C(=O)O)[C@@H](c1ccc(O)c(O)c1)O2)O[C@H](Cc1ccc(O)c(O)c1)C(=O)O [salvianolic acid B]	about 0.02	about 0.07	about 0.26	68.3% (±5.3%)	57.5% (±14.4%)	57.6% (±18.7%)	38.3% (±18.8%)	no activated caspase-3 was observed	inhibit	inhibit	83	1,563 ± 2,504 10^3 μm^2	9,763 ± 2,239 10^3 μm^2	0.128 ± 0.170
